Data published in patent US20090203877A1, “X-RAY-DENSE CONJUGATE” (Eberhard-Karls-Universitaet Tuebingen Universitaetsklinkum, priority 2006, published 2009).

Tested on: human malignant U373 glioma cells
Assay: Computer tomography, signal density of cell pellets
Format: cell-based

PKKKRKVK(FITC)GGK(TIBA) (FITC, GGK linker, TIBA) [conjugate 1, FITC-labelled correct NLS of the SV 40 T antigen with TIBA]
CT signal density of cell pellets (26 μM, 20 min): only low signal density values
CT signal density of cell pellets (260 μM, 20 min): significant increase in signal density
CT signal density of cell pellets (2.6 mM, 20 min): significant increase in signal density
CT signal density of cell pellets (varying concentrations (26 μM, 260 μM and 2.6 mM) and PBS alone): did result in differences in signal densities
